The results in this text go back to US11760750B1, “Process for preparing levoketoconazole” (Nuray Chemicals Private Limited, priority 2022, dated 2023).

A short description of one data set: Solubility in water. It counts as physicochemical.
Data set [1] is described as follows: Powder flow of crystalline levoketoconazole: bulk density, tapped density, Hausner Ratio, Carr Index (USP <1174>). It counts as physicochemical. On the procedure:
The Hausner Ratio is a value calculated by dividing the tapped density of the levoketoconazole by the freely settled bulk density of the levoketoconazole. The freely settled bulk density is calculated by pouring a known weight of material into a measuring cylinder and recording the volume. The tapped density is calculated by tapping the cylinder against a surface for a specified numbers of times and recording again the new volume.
The Carr (or Compressibility) Index is frequently used in pharmaceutics as an indication of the compressibility of a powder. The Carr Index may be calculated by dividing the difference of the tapped and bulk densities by the tapped density and then multiplying by 100. In a free-flowing powder, the bulk density and tapped density would be close in value; therefore, the Carr Index would be small. On the other hand, in a poor-flowing powder where there are greater interparticle interactions, the difference between the bulk and tapped density observed would be greater, therefore, the Carr Index would be larger.

Structures are written as SMILES.

Regarding `CC(=O)N1CCN(c2ccc(OC[C@@H]3CO[C@@](Cn4ccnc4)(c4ccc(Cl)cc4Cl)O3)cc2)CC1` [crystalline levoketoconazole, (2S,4R)-cis-1-acetyl-4-[4-[[2-(2,4-dichlorophenyl)-2-(1H-imidazol-1-ylmethyl)-1,3-dioxolan-4-yl]methoxyl]phenyl] piperazine], the solubility in water entry in “Solubility in water” is “poorly soluble in water”. Moreover, the “Carr Index (Compressibility Index)” value in data set [1] is reported as “below 15”. Also, the “flowability (flow character by Hausner Ratio)” value in data set [1] is “good”. In data set [1] (100 g sample, 250 mL graduated cylinder), the bulk density result is reported as “about 0.576 g/mL”. For the same molecule, the “Hausner Ratio” value in data set [1] (500 taps) stood at 1.120; in data set [1] (1250 taps), 1.18. Also, the tapped density entry in data set [1] (after 500 taps) is listed as “about 0.686 g/mL”; in data set [1] (after 1,250 taps) it was “about 0.681 g/mL”.
